Measured values reported in paper PMC5622171 (Nature Communications, 2017).

Experiments:
Assay in all cases: KINOMEscan kinase profiling
Assay type in all cases: binding
[1] = target: T1, ACVR2A (Homo sapiens, UniProt P27037); conditions: read-out: %Inhibition by 10 μM SPA70
T1 construct: purchased DiscoverX (Ambit Biosciences) KINOMEscan
Outline: (§1)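 KINOMEscan profiling followed a published protocol. Kinases whose inhibition exceeded a set cut-off were then tested in a dilution series beginning at 30 µM.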

[2] = target: T2, ALK (Homo sapiens, UniProt Q9UM73); conditions: read-out: %Inhibition by 10 μM SPA70
T2 construct: purchased DiscoverX (Ambit Biosciences) KINOMEscan
Outline: as §1

[3] = target: T3, BIKE (Homo sapiens, UniProt Q9NSY1); conditions: read-out: %Inhibition by 10 μM SPA70
T3 construct: purchased DiscoverX (Ambit Biosciences) KINOMEscan
Outline: as §1

[4] = target: T4, BRSK1 (Homo sapiens, UniProt Q8TDC3); conditions: read-out: %Inhibition by 10 μM SPA70
T4 construct: purchased DiscoverX (Ambit Biosciences) KINOMEscan
Outline: as §1

[5] = target: T5, CAMKK1 (Homo sapiens, UniProt Q8N5S9); conditions: read-out: %Inhibition by 10 μM SPA70
T5 construct: purchased DiscoverX (Ambit Biosciences) KINOMEscan
Outline: as §1

[6] = target: T6, CDC2L2 (Homo sapiens, UniProt Q9UQ88); conditions: read-out: %Inhibition by 10 μM SPA70
T6 construct: purchased DiscoverX (Ambit Biosciences) KINOMEscan
Outline: as §1

[7] = target: T7, CDK5 (Homo sapiens, UniProt Q00535)
T7 construct: purchased DiscoverX (Ambit Biosciences) KINOMEscan
Outline: as §1

[8] = target: T8, CLK2 (Homo sapiens, UniProt P49760); conditions: read-out: %Inhibition by 10 μM SPA70
T8 construct: purchased DiscoverX (Ambit Biosciences) KINOMEscan
Outline: as §1

[9] = target: T9, CSNK1G2 (Homo sapiens, UniProt P78368)
T9 construct: purchased DiscoverX (Ambit Biosciences) KINOMEscan
Outline: as §1

[10] = target: T10, EIF2AK1 (Homo sapiens, UniProt Q9BQI3); conditions: read-out: %Inhibition by 10 μM SPA70
T10 construct: purchased DiscoverX (Ambit Biosciences) KINOMEscan
Outline: as §1

[11] = target: T11, EPHA5 (Homo sapiens, UniProt P54756)
T11 construct: purchased DiscoverX (Ambit Biosciences) KINOMEscan
Outline: as §1

[12] = target: T12, ERBB2 (Homo sapiens, UniProt P04626); conditions: read-out: %Inhibition by 10 μM SPA70
T12 construct: purchased DiscoverX (Ambit Biosciences) KINOMEscan
Outline: as §1

[13] = target: T13, ERBB4 (Homo sapiens, UniProt Q15303); conditions: read-out: %Inhibition by 10 μM SPA70
T13 construct: purchased DiscoverX (Ambit Biosciences) KINOMEscan
Outline: as §1

[14] = target: T14, FGR (Homo sapiens, UniProt P09769); conditions: read-out: %Inhibition by 10 μM SPA70
T14 construct: purchased DiscoverX (Ambit Biosciences) KINOMEscan
Outline: as §1

[15] = target: T15, FYN (Homo sapiens, UniProt P06241); conditions: read-out: %Inhibition by 10 μM SPA70
T15 construct: purchased DiscoverX (Ambit Biosciences) KINOMEscan
Outline: as §1

[16] = target: T16, JAK1(JH2domain-pseudokinase) (Homo sapiens, UniProt P23458)
T16 construct: JAK1(JH2domain-pseudokinase); purchased DiscoverX (Ambit Biosciences) KINOMEscan
Outline: as §1

[17] = target: T17, LATS1 (Homo sapiens, UniProt O95835); conditions: read-out: %Inhibition by 10 μM SPA70
T17 construct: purchased DiscoverX (Ambit Biosciences) KINOMEscan
Outline: as §1

[18] = target: T18, LATS2 (Homo sapiens, UniProt Q9NRM7)
T18 construct: purchased DiscoverX (Ambit Biosciences) KINOMEscan
Outline: as §1

[19] = target: T19, LKB1 (Homo sapiens, UniProt Q15831); conditions: read-out: %Inhibition by 10 μM SPA70
T19 construct: purchased DiscoverX (Ambit Biosciences) KINOMEscan
Outline: as §1

[20] = target: T20, MERTK (Homo sapiens, UniProt Q12866); conditions: read-out: %Inhibition by 10 μM SPA70
T20 construct: purchased DiscoverX (Ambit Biosciences) KINOMEscan
Outline: as §1

[21] = target: T21, NEK2 (Homo sapiens, UniProt P51955); conditions: read-out: %Inhibition by 10 μM SPA70
T21 construct: purchased DiscoverX (Ambit Biosciences) KINOMEscan
Outline: as §1

[22] = target: T22, NEK6 (Homo sapiens, UniProt Q9HC98); conditions: read-out: %Inhibition by 10 μM SPA70
T22 construct: purchased DiscoverX (Ambit Biosciences) KINOMEscan
Outline: as §1

[23] = target: T23, PDGFRB (Homo sapiens, UniProt P09619); conditions: read-out: %Inhibition by 10 μM SPA70
T23 construct: purchased DiscoverX (Ambit Biosciences) KINOMEscan
Outline: as §1

[24] = target: T24, PFTAIRE2 (Homo sapiens, UniProt Q96Q40); conditions: read-out: %Inhibition by 10 μM SPA70
T24 construct: purchased DiscoverX (Ambit Biosciences) KINOMEscan
Outline: as §1

[25] = target: T25, PHKG2 (Homo sapiens, UniProt P15735); conditions: read-out: %Inhibition by 10 μM SPA70
T25 construct: purchased DiscoverX (Ambit Biosciences) KINOMEscan
Outline: as §1

[26] = target: T26, PLK2 (Homo sapiens, UniProt Q9NYY3)
T26 construct: purchased DiscoverX (Ambit Biosciences) KINOMEscan
Outline: as §1

[27] = target: T27, PRKCQ (Homo sapiens, UniProt Q04759); conditions: read-out: %Inhibition by 10 μM SPA70
T27 construct: purchased DiscoverX (Ambit Biosciences) KINOMEscan
Outline: as §1

[28] = target: T28, RIOK3 (Homo sapiens, UniProt O14730); conditions: read-out: %Inhibition by 10 μM SPA70
T28 construct: purchased DiscoverX (Ambit Biosciences) KINOMEscan
Outline: as §1

[29] = target: T29, ROS1 (Homo sapiens, UniProt P08922); conditions: read-out: %Inhibition by 10 μM SPA70
T29 construct: purchased DiscoverX (Ambit Biosciences) KINOMEscan
Outline: as §1

[30] = target: T30, RPS6KA5(Kin.Dom.2-C-terminal) (Homo sapiens, UniProt O75582); conditions: read-out: %Inhibition by 10 μM SPA70
T30 construct: RPS6KA5(Kin.Dom.2-C-terminal); purchased DiscoverX (Ambit Biosciences) KINOMEscan
Outline: as §1

[31] = target: T31, SIK (Homo sapiens, UniProt P57059)
T31 construct: purchased DiscoverX (Ambit Biosciences) KINOMEscan
Outline: as §1

[32] = target: T32, SRPK2 (Homo sapiens, UniProt P78362); conditions: read-out: %Inhibition by 10 μM SPA70
T32 construct: purchased DiscoverX (Ambit Biosciences) KINOMEscan
Outline: as §1

[33] = target: T33, STK16 (Homo sapiens, UniProt O75716); conditions: read-out: %Inhibition by 10 μM SPA70
T33 construct: purchased DiscoverX (Ambit Biosciences) KINOMEscan
Outline: as §1

[34] = target: T34, TAK1 (Homo sapiens, UniProt O43318); conditions: read-out: %Inhibition by 10 μM SPA70
T34 construct: purchased DiscoverX (Ambit Biosciences) KINOMEscan
Outline: as §1

[35] = target: T35, TEC (Homo sapiens, UniProt P42680); conditions: read-out: %Inhibition by 10 μM SPA70
T35 construct: purchased DiscoverX (Ambit Biosciences) KINOMEscan
Outline: as §1

[36] = target: T36, TYRO3 (Homo sapiens, UniProt Q06418); conditions: read-out: %Inhibition by 10 μM SPA70
T36 construct: purchased DiscoverX (Ambit Biosciences) KINOMEscan
Outline: as §1

[37] = target: T37, VEGFR2 (Homo sapiens, UniProt P35968); conditions: read-out: %Inhibition by 10 μM SPA70
T37 construct: purchased DiscoverX (Ambit Biosciences) KINOMEscan
Outline: as §1

[38] = target: T38, WEE1 (Homo sapiens, UniProt P30291); conditions: read-out: %Inhibition by 10 μM SPA70
T38 construct: purchased DiscoverX (Ambit Biosciences) KINOMEscan
Outline: as §1

[39] = target: T39, WEE2 (Homo sapiens, UniProt P0C1S8); conditions: read-out: %Inhibition by 10 μM SPA70
T39 construct: purchased DiscoverX (Ambit Biosciences) KINOMEscan
Outline: as §1

[40] = target: T40, YSK4 (Homo sapiens, UniProt Q56UN5); conditions: read-out: %Inhibition by 10 μM SPA70
T40 construct: purchased DiscoverX (Ambit Biosciences) KINOMEscan
Outline: as §1

[41] = target: T41, ZAK (Homo sapiens, UniProt Q9NYL2); conditions: read-out: %Inhibition by 10 μM SPA70
T41 construct: purchased DiscoverX (Ambit Biosciences) KINOMEscan
Outline: as §1

T7 sequence (Q00535 whole entry): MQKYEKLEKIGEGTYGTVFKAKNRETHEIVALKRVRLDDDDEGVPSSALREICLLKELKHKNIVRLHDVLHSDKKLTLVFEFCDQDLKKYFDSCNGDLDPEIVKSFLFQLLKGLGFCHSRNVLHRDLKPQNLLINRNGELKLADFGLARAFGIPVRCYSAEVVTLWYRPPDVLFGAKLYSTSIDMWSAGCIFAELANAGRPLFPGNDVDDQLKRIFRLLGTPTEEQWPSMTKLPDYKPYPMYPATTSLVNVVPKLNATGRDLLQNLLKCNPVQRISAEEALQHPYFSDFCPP
T14 sequence (P09769 whole entry): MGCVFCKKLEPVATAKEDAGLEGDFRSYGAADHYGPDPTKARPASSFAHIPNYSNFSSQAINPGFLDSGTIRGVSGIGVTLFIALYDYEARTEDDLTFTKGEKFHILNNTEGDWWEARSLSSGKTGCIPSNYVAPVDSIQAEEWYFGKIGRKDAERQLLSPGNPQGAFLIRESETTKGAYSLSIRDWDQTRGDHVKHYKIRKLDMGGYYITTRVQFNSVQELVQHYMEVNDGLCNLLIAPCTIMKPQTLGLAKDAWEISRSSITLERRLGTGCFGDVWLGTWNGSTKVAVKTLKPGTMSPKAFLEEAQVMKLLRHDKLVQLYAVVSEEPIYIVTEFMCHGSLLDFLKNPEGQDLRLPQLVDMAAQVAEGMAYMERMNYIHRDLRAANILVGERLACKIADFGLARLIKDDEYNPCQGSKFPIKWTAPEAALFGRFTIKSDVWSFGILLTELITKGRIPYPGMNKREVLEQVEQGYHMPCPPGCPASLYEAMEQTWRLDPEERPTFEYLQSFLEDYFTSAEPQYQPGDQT
T28 sequence (O14730 whole entry): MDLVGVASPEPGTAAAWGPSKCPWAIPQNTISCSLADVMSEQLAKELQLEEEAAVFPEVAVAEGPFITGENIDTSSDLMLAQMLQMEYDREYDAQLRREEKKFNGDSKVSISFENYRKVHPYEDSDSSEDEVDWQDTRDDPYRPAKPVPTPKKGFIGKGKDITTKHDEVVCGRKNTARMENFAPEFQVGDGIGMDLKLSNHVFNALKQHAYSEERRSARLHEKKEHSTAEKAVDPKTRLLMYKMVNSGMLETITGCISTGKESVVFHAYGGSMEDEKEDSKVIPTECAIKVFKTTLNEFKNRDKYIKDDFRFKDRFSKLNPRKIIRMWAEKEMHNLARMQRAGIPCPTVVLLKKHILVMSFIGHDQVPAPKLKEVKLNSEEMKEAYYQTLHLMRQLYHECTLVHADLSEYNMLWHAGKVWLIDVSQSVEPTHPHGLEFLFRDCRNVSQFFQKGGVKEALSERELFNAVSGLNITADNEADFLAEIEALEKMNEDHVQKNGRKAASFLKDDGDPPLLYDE
T15 sequence (P06241 whole entry): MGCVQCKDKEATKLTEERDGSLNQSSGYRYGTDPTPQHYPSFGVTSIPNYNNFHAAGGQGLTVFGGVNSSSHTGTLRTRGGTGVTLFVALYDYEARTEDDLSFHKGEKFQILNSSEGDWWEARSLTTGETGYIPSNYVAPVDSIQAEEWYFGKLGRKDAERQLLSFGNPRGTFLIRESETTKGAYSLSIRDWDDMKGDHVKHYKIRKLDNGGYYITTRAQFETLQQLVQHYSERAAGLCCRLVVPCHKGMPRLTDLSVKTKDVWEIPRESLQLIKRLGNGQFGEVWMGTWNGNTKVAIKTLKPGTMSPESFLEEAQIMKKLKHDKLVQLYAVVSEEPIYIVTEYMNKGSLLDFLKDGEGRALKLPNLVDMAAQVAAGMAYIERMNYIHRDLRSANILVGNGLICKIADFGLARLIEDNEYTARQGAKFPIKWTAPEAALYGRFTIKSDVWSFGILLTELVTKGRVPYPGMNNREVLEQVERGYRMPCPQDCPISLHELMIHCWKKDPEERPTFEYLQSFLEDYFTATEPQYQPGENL
T29 sequence (P08922 28-2347): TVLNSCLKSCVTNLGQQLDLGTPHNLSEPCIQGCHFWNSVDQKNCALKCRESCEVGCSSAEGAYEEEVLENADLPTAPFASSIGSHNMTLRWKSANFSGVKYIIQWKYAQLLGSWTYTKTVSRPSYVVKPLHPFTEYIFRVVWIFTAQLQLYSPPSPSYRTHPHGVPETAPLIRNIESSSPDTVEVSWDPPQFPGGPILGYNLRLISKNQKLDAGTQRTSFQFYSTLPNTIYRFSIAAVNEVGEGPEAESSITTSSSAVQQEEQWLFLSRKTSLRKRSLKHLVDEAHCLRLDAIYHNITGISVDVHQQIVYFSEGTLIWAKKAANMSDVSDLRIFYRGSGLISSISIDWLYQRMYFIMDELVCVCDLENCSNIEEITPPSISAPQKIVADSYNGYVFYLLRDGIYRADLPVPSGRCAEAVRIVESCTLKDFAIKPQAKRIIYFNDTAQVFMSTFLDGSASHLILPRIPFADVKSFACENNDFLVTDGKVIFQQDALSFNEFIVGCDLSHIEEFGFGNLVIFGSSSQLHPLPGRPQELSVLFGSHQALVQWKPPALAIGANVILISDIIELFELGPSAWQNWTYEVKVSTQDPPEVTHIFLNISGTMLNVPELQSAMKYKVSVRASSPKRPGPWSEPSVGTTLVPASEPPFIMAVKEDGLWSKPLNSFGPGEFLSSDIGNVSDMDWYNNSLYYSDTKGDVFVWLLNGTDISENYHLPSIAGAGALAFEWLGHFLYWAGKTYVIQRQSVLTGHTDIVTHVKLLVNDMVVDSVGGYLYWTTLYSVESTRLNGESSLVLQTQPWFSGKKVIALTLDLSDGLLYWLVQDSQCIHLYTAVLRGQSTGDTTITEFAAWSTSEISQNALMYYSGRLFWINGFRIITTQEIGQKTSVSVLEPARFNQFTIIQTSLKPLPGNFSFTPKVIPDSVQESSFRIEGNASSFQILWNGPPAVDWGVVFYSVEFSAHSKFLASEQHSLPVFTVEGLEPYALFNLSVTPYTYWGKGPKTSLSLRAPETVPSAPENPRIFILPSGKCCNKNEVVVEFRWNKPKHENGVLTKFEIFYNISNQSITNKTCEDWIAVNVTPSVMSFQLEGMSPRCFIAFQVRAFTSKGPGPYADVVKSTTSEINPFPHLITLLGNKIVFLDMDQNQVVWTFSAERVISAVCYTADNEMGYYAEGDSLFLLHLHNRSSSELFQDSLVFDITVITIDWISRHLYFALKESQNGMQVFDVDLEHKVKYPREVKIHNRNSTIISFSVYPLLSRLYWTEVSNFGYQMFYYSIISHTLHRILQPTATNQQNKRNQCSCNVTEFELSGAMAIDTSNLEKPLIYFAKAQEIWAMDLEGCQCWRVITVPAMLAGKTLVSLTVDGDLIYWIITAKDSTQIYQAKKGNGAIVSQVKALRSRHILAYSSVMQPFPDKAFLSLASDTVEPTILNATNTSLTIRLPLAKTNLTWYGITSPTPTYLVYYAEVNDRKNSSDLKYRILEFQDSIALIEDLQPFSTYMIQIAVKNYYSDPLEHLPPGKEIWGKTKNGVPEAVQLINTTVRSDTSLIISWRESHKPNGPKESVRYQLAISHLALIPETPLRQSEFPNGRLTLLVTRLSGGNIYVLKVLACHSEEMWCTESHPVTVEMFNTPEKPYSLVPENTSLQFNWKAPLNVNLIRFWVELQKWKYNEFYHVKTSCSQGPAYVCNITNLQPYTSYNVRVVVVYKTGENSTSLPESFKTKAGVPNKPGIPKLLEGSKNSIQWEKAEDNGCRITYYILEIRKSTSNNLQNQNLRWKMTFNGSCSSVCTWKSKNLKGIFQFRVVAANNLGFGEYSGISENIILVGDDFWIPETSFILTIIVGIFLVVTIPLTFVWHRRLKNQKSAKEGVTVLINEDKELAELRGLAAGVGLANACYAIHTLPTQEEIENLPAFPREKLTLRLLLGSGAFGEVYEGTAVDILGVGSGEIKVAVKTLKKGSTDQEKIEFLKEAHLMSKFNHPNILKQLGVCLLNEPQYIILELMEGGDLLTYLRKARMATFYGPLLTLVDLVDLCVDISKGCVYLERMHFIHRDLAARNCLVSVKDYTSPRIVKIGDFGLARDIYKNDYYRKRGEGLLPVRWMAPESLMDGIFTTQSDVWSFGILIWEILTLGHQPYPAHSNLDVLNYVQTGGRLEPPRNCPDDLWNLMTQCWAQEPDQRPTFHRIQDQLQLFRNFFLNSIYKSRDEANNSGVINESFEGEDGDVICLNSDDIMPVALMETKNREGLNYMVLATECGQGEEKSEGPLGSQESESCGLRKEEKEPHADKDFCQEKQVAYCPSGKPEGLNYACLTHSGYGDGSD
T19 sequence (Q15831 whole entry): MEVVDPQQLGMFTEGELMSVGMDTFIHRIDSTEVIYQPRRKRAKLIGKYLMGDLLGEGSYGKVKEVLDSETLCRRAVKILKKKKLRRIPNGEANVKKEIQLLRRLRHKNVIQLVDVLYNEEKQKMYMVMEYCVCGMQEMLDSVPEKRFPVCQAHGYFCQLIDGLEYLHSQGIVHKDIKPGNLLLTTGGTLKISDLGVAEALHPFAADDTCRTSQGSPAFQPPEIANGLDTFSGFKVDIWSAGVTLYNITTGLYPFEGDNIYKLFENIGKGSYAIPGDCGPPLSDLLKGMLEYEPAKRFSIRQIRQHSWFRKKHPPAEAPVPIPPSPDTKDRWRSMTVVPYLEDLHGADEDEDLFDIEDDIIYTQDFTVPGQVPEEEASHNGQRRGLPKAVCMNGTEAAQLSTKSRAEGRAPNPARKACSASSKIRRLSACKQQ
T22 sequence (Q9HC98 whole entry): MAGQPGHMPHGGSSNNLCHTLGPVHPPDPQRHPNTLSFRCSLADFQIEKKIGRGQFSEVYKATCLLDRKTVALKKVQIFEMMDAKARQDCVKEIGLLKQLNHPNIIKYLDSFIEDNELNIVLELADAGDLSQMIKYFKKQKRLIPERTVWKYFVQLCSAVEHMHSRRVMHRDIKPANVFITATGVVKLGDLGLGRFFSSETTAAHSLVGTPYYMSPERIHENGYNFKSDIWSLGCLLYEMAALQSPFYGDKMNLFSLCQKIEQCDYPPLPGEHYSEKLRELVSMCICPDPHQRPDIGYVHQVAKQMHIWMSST

**Q.** Which results are given for COc1ccc(OC)c(-n2nnc(S(=O)(=O)c3ccc(C(C)(C)C)cc3)c2C)c1 [SPA70]?
**A.** inhibition at 10 µM [1]: 0%; inhibition at 10 µM [2]: 0%; inhibition at 10 µM [3]: 35%; inhibition at 10 µM [4]: 8%; inhibition at 10 µM [5]: 1%; inhibition at 10 µM [6]: 9%; %Inhibition by 10 μM SPA70 [7]: not inhibited; inhibition at 10 µM ([7]; read-out: %Inhibition by 10 μM SPA70): 0%; inhibition at 10 µM [8]: 24%; %Inhibition by 10 μM SPA70 [9]: 0%; inhibition at 10 µM [10]: 0%; %Inhibition by 10 μM SPA70 [11]: 0%; inhibition at 10 µM [12]: 5%; inhibition at 10 µM [13]: 2%; inhibition at 10 µM [14]: 6%; inhibition at 10 µM [15]: 0%; %Inhibition by 10 μM SPA70 [16]: 0%; inhibition at 10 µM [17]: 0%; %Inhibition by 10 μM SPA70 [18]: 0%; inhibition at 10 µM [19]: 0%; inhibition at 10 µM [20]: 0%; inhibition at 10 µM [21]: 4%; inhibition at 10 µM [22]: 0%; inhibition at 10 µM [23]: 46%; inhibition at 10 µM [24]: 0%; inhibition at 10 µM [25]: 0%; %Inhibition by 10 μM SPA70 [26]: 9%; inhibition at 10 µM [27]: 4%; inhibition at 10 µM [28]: 24%; inhibition at 10 µM [29]: 5%; inhibition at 10 µM [30]: 37%; %Inhibition by 10 μM SPA70 [31]: 0%; inhibition at 10 µM [32]: 0%; inhibition at 10 µM [33]: 0%; inhibition at 10 µM [34]: 0%; inhibition at 10 µM [35]: 0%; inhibition at 10 µM [36]: 0%; inhibition at 10 µM [37]: 0%; inhibition at 10 µM [38]: 0%; inhibition at 10 µM [39]: 1%; inhibition at 10 µM [40]: 0%; inhibition at 10 µM [41]: 0%
